Experimental data taken from patent US10208033B2, “β-carboline, dihydro-β-carboline and tetrahydro-β-carboline alkaloid derivatives and preparation methods same and use in aspects of preventing and treating plant viruses, fungicides and insecticides” (NANKAI UNIVERSITY, priority 2013, dated 2019).

Key:
[1] = tested on: tobacco mosaic virus (TMV); assay: Anti-TMV in vitro effect (half-leaf soaking); format: cell-based, tobacco mosaic virus (host Nicotiana tabacum L.cv.Xanthi NN)
[2] = tested on: tobacco mosaic virus (TMV); assay: Anti-TMV in vivo inactivation; design: species or system tobacco mosaic virus (host Nicotiana tabacum L.cv.Xanthi NN)
[3] = tested on: tobacco mosaic virus (TMV); assay: Anti-TMV in vivo therapeutic effect; design: species or system tobacco mosaic virus (host Nicotiana tabacum L.cv.Xanthi NN)
[4] = tested on: tobacco mosaic virus (TMV); assay: Anti-TMV in vivo protective effect; design: species or system tobacco mosaic virus (host Nicotiana tabacum L.cv.Xanthi NN)
[5] = tested on: cucumber fusarium wilt; assay: Fungicidal (bactericidal) activity in vitro, PDA colony diameter; format: cell-based; conditions: 50 mg/kg
[6] = tested on: Cercospora arachidicola; assay: as above; format: cell-based; conditions: 50 mg/kg
[7] = tested on: Macrophoma kawatsukai; assay: as above; format: cell-based; conditions: 50 mg/kg
[8] = tested on: Alternaria solani; assay: as above; format: cell-based; conditions: 50 mg/kg
[9] = tested on: Fusarium graminearumt; assay: microbe, parasite or virus in culture; format: cell-based; conditions: 50 mg/kg
[10] = tested on: potato late blight; assay: microbe, parasite or virus in culture; format: cell-based
[11] = tested on: Sclerotinia scleotiorum; assay: Fungicidal (bactericidal) activity in vitro, PDA colony diameter; format: cell-based; conditions: 50 mg/kg
[12] = tested on: Botrytis cinerea; assay: as above; format: cell-based; conditions: 50 mg/kg
[13] = tested on: Rhizoctonia solani; assay: as above; format: cell-based; conditions: 50 mg/kg
[14] = tested on: Phytophthora capsici; assay: as above; format: cell-based; conditions: 50 mg/kg
[15] = tested on: Fusarium fujikuroi; assay: as above; format: cell-based; conditions: 50 mg/kg
[16] = tested on: Rhizoctonia cereali; assay: as above; format: cell-based; conditions: 50 mg/kg
[17] = tested on: Bipolaria maydis; assay: organism not typed; format: cell-based; conditions: 50 mg/kg
[18] = tested on: Colletotrichum orbiculare; assay: Fungicidal (bactericidal) activity in vitro, PDA colony diameter; format: cell-based; conditions: 50 mg/kg
[19] = tested on: armyworms; format: in vivo; conditions: concentration 600 mg/kg
[20] = tested on: cotton bollworms; assay: whole plant or invertebrate; conditions: concentration 600 mg/kg
Experimental: Experimental method of cotton bollworms: feed and drug mixing method: measure 3 mL of prepared solution and add it to about 27 g of newly prepared feed, thereby obtaining needed concentration through dilution by 10 times.

[21] = tested on: mosquito larvae; assay: whole plant or invertebrate; conditions: concentration 10 mg/kg, 24 h
Method in brief: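 Early fourth-instar Culex pipiens pallens larvae from an indoor colony, 10 per beaker, exposed to test compound at 5 ppm in water, diluted from a 1000 ppm acetone mother solution. Blank: water containing 0.5 mL test solvent.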

[22] = tested on: corn borers; conditions: concentration 600 mg/kg

Row | Structure (SMILES) | Relative inhibition rate (%) In vitro activity ([1]; treatment dose 100 μg/mL) [%] | Relative inhibition rate (%) In vitro activity ([1]; treatment dose 500 μg/mL) [%] | Relative inhibition rate (%) In vivo inactivation ([2]; treatment dose 100 μg/mL) [%] | Relative inhibition rate (%) In vivo inactivation ([2]; treatment dose 500 μg/mL) [%] | Relative inhibition rate (%) In vivo therapy ([3]; treatment dose 100 μg/mL) [%] | Relative inhibition rate (%) In vivo therapy ([3]; treatment dose 500 μg/mL) [%] | Relative inhibition rate (%) In vivo protection ([4]; treatment dose 100 μg/mL) [%] | Bactericidal activity (%) Cucumber fusarium wilt [5] [%] | Bactericidal activity (%) Cercospora arachidicola [6] [%] | Bactericidal activity (%) Macrophoma kawatsukai [7] [%] | Bactericidal activity (%) Alternaria solani [8] [%] | Bactericidal activity (%) Fusarium graminearumt [9] [%] | Bactericidal activity (%) potato late blight [10] [%] | Bactericidal activity (%) Sclerotinia scleotiorum [11] [%] | Bactericidal activity (%) Botrytis cinerea [12] [%] | Bactericidal activity (%) Rhizoctonia solani [13] [%] | Bactericidal activity (%) Phytophthora capsici [14] [%] | Bactericidal activity (%) Fusarium fujikuroi [15] [%] | Bactericidal activity (%) Rhizoctonia cereali [16] [%] | Bactericidal activity (%) Bipolaria maydis [17] [%] | other results
1 | CC(=NNC(=O)[C@@H]1Cc2c([nH]c3ccccc23)[C@H](C)N1)c1ccccc1 [Ic-27, (1S, 3S)—N′-(1-phenylethylidene)-1-methyl-2,3,4,9-tetrahydropyridino [3,4-b] indol-3-formylhydrazine] | 9.2 | 30.2 | 13.6 | 39.5 | 11.1 | 34.8 | 7.9 | 0.0 | 36.4 | 39.4 | 33.3 | 61.5 | 26.1 | 11.5 | 69.4 | 15.3 | 36.4 | 29.4 | 51.4 | 36.0 | Relative inhibition rate (%) In vivo protection ([4]; treatment dose 500 μg/mL): 37.2%; Bactericidal activity (%) Colletotrichum orbiculare [18]: 52.0%; Armyworm Mortality (%) [19]: 20%; Cotton bollworm Mortality (%) [20]: 30%; Mosquito larvae Mortality (%) [21]: 40%; Corn borer Mortality (%) [22]: 30%
2 | C[C@@H]1N[C@H](C(=O)NN=C2CCCCC2)Cc2c1[nH]c1ccccc21 [Ic-29, (1S, 3S)—N′-cyclohexylidene-1-methyl-2,3,4,9-tetrahydropyridino [3,4-b] indol-3-formylhydrazine] | 8.6 | 43.4 | 12.8 | 33 | 10.9 | 41.9 | 14.3 | 0.0 | 18.2 | 9.1 | 19.0 | 46.2 | 26.1 | 7.7 | 52.8 | 15.3 | 12.1 | 29.4 | 48.6 | 32.0 | Relative inhibition rate (%) In vivo protection ([4]; in vivo): 46.2%; Bactericidal activity (%) Colletotrichum orbiculare [18]: 32.0%; Armyworm Mortality (%) [19]: 20%; Cotton bollworm Mortality (%) [20]: 25%; Mosquito larvae Mortality (%) [21]: 45%; Corn borer Mortality (%) [22]: 15%
